Patent US20140221676A1, “COMPOSITIONS AND METHODS FOR TREATING AND/OR PREVENTING CARDIOVASCULAR DISEASE” (Amarin Pharmaceuticals Ireland Limited, priority 2013, published 2014)

Key:
[1] = system: inflammation-associated end points (ICAM-1, Ox-LDL, Lp-PLA2, IL-6, hsCRP); test: MARINE study, inflammation-associated end points (ITT); assay type: in vivo, human; settings: AMR101 4 g/day, median
Text: A summary of baseline values, end-of-treatment values, and median placebo-adjusted percent change from baseline to study end of inflammation-associated end points in each of the three ITT sub-populations is shown in Table 5. […]

[2] = system: inflammation-associated end points (ICAM-1, Ox-LDL, Lp-PLA2, IL-6, hsCRP); test: ANCHOR study, inflammation-associated end points (ITT); assay type: in vivo, human; settings: for ICAM-1 median placebo-adjusted % change from baseline / IL-6 median placebo-adjusted % change from baseline / Lp-PLA2 median placebo-adjusted % change from baseline / Ox-LDL median placebo-adjusted % change from baseline / hsCRP median placebo-adjusted % change from baseline: week 12; for ICAM-1 change from baseline / ICAM-1 end-of-treatment value / IL-6 change from baseline / IL-6 end-of-treatment value / Lp-PLA2 change from baseline / Lp-PLA2 end-of-treatment value / Ox-LDL change from baseline / Ox-LDL end-of-treatment value / hsCRP change from baseline / hsCRP end-of-treatment value: week 12, on statin, median
Protocol: A multi-center, placebo-controlled, randomized, double-blind, 12-week study was performed to evaluate the efficacy and safety of >96% E-EPA in patients with fasting triglyceride levels ≧200 mg/dl and <500 mg/dl despite statin therapy (the mean of two qualifying entry values needed to be ≧185 mg/dl and at least one of the values needs to be ≧200 mg/dl). The primary objective of the study was to determine the efficacy of >96% E-EPA 2 g daily and 4 g daily, compared to placebo, in lowering fasting TG levels in patients with high risk for cardiovascular disease and with fasting TG levels ≧200 mg/dL and <500 mg/dL, despite treatment to LDL-C goal on statin therapy.
The population for this study was men and women >18 years of age with a body mass index ≦45 kg/m^2 with fasting TG levels greater than or equal to 200 mg/dl and less than 500 mg/dl and on a stable does of statin therapy (with or without ezetimibe). The statin must have been atorvostatin, rosuvastatin or simvastatin. The dose of statin must have been stable for ≧4 weeks prior to the LDL-C/TG baseline qualifying measurement for randomization. The statin dose was optimal such that the patients are at their LDL-C goal at the LDL-C/TG baseline qualifying measurements. The same statin at the same dose was continued until the study ended.
Approximately 648 patients were randomized at approximately 80 centers in the U.S. The study was a 18- to 20-week, Phase 3, multi-center study consisting of 2 study periods: (1) A 6- to 8-week screening period that included a diet and lifestyle stabilization, a non-statin lipid-altering treatment washout, and an LDL-C and TG qualifying period and (2) A 12-week, double-blind, randomized, placebo-controlled treatment period.
After confirmation of qualifying fasting LDL-C and TG values, eligible patients entered a 12-week, randomized, double-blind treatment period. At Visit 4 (Week 0), patients were randomly assigned to 1 of the following treatment groups: • >96% E-EPA 2 g daily, • >96% E-EPA 4 g daily, or • Placebo.
>96% E-EPA was provided in 1 g liquid-filled, oblong, gelatin capsules. The matching placebo capsule was filled with light liquid paraffin and contains 0 g of >96% E-EPA. >96% E-EPA capsules were to be taken with food (i.e. with or at the end of a meal).
The primary efficacy variable for the double-blind treatment period was percent change in TG from baseline to Week 12 endpoint. The secondary efficacy variables for the double-blind treatment period included the following: • Percent changes in total cholesterol (TC), high-density lipoprotein cholesterol (HDL-C), LDL-C, calculated non-HDL-C, and very low-density lipoprotein cholesterol (VLDL-C) from baseline to Week 12 endpoint; • Percent change in very low-density lipoprotein TG from baseline to Week 12; • Percent changes in apolipoprotein A-I (apo A-I), apolipoprotein B (apo B), and apo A-I/apo B ratio from baseline to Week 12; • Percent changes in lipoprotein(a) from baseline to Week 12; • Percent changes in LDL particle number and size, measured by nuclear magnetic resonance, from baseline to Week 12; • Percent change in remnant-like particle cholesterol from baseline to Week 12; • Percent change in oxidized LDL from baseline to Week 12; • Changes in FPG and HbA1c from baseline to Week 12; • Change in insulin resistance, as assessed by the homeostasis model index insulin resistance, from baseline to Week 12; • Percent change in lipoprotein associated phospholipase A2 (Lp-PLA2) from baseline to Week 12; • Change in intracellular adhesion molecule-1 from baseline to Week 12; • Change in interleukin-2 from baseline to Week 12; • Change in plasminogen activator inhibitor-1 from baseline to Week 12. […]

Structure (SMILES): CC/C=C\C/C=C\C/C=C\C/C=C\C/C=C\CCCC(=O)OCC [IPE, ethyl eicosapentaenoate]
- Lp-PLA2 change from baseline [1]: −17.1%
- Lp-PLA2 end-of-treatment value [1]: 201.0 ng/mL
- Ox-LDL change from baseline [1]: −3.0%
- Ox-LDL end-of-treatment value [1]: 74.8 U/L
- hsCRP change from baseline [1]: −2.5%
- hsCRP end-of-treatment value [1]: 2.2 mg/L
- ICAM-1 median placebo-adjusted % change from baseline ([2]; AMR101 2 g/day vs placebo): −2.2%
- IL-6 median placebo-adjusted % change from baseline ([2]; AMR101 2 g/day vs placebo): 7.0%
- Lp-PLA2 median placebo-adjusted % change from baseline ([2]; AMR101 2 g/day vs placebo): −8.0%
- Ox-LDL median placebo-adjusted % change from baseline ([2]; AMR101 2 g/day vs placebo): −5.8%
- hsCRP median placebo-adjusted % change from baseline ([2]; AMR101 2 g/day vs placebo): −6.8%
- ICAM-1 change from baseline ([2]; AMR101 2 g/day): 0.5%
- ICAM-1 end-of-treatment value ([2]; AMR101 2 g/day): 268.5 ng/mL
- IL-6 change from baseline ([2]; AMR101 2 g/day): 6.9%
- IL-6 end-of-treatment value ([2]; AMR101 2 g/day): 2.7 pg/mL
- Lp-PLA2 change from baseline ([2]; AMR101 2 g/day): −1.8%
- Lp-PLA2 end-of-treatment value ([2]; AMR101 2 g/day): 183.5 ng/mL
- Ox-LDL change from baseline ([2]; AMR101 2 g/day): 2.6%
- Ox-LDL end-of-treatment value ([2]; AMR101 2 g/day): 55.8 U/L
- hsCRP change from baseline ([2]; AMR101 2 g/day): 10.3%
- hsCRP end-of-treatment value ([2]; AMR101 2 g/day): 2.5 mg/L
- ICAM-1 median placebo-adjusted % change from baseline ([2]; AMR101 4 g/day vs placebo): −2.4%
- IL-6 median placebo-adjusted % change from baseline ([2]; AMR101 4 g/day vs placebo): −1.0%
- Lp-PLA2 median placebo-adjusted % change from baseline ([2]; AMR101 4 g/day vs placebo): −19.0%
- Ox-LDL median placebo-adjusted % change from baseline ([2]; AMR101 4 g/day vs placebo): −13.3%
- hsCRP median placebo-adjusted % change from baseline ([2]; AMR101 4 g/day vs placebo): −22.0%
- ICAM-1 change from baseline ([2]; AMR101 4 g/day): 0.8%
- ICAM-1 end-of-treatment value ([2]; AMR101 4 g/day): 270.0 ng/mL
- IL-6 change from baseline ([2]; AMR101 4 g/day): 3.1%
- IL-6 end-of-treatment value ([2]; AMR101 4 g/day): 2.6 pg/mL
- Lp-PLA2 change from baseline ([2]; AMR101 4 g/day): −12.8%
- Lp-PLA2 end-of-treatment value ([2]; AMR101 4 g/day): 160.0 ng/mL
- Ox-LDL change from baseline ([2]; AMR101 4 g/day): −4.8%
- Ox-LDL end-of-treatment value ([2]; AMR101 4 g/day): 51.4 U/L
- hsCRP change from baseline ([2]; AMR101 4 g/day): −2.4%
- hsCRP end-of-treatment value ([2]; AMR101 4 g/day): 2.0 mg/L
